Laboratory results reported in patent US6821761B2, “Sphingolipid ceramide N-deacylase, methods for producing sphingolipids and sphingolipid derivatives, and sphingolipid ceramide N-deacylase gene” (Takara Bio, Inc., priority 1994, dated 2004).

Experiments:
[1] = tested on: SCDase derived from the genus Pseudomonas; assay: Fatty acid exchange reaction on various acceptors by SCDase; assay type: biochemical; details: 1 nmol [1-14C] stearic acid, 1 nmol sphingolipid, 30 μU SCDase, acetate buffer pH 6.0, 0.8% Triton X-100, overnight 37° C., galactosyl ceramide = 100
Procedure: A 10 μl portion of 50 mM acetate buffer (pH 6.0) containing 1 nmol [1−^14C] stearic acid, 1 nmol sphingolipid, 0.8% Triton X-100 and 30 μU SCDase derived from the genus Pseudomonas was allowed to react overnight at 37° C.
The thus obtained reaction solution was developed on thin layer chromatography and exposed to an imaging plate to carry out determination of the reaction product by BAS 1000 Imaging Analyzer (manufactured by Fuji Photo Film).

SCDase = assay: Substrate specificity (hydrolysis) of purified SCDase from Pseudomonas sp. TK-4; assay type: biochemical; details: 10 nmol sphingolipid, 2 milliunits enzyme, 37° C. 16 h, 20 mM sodium acetate buffer pH 5.0, 0.8% Triton X-100, TLC
Procedure: (§1) The enzyme activity of the SCDase is assayed in the following manner. To 10 μl of a substrate solution [50 mM acetate buffer solution (pH 6.0) containing 2 mM of asialo GM1 and 0.6% (w/v) of Triton X-100] is added 10 μl of an enzyme solution. After reacting at 37° C. for 30 minutes, the enzyme reaction is ceased by heating the mixture to 100° C. for 3 minutes. Then the reaction mixture is concentrated to dryness with a centrifugal concentrator. Then the obtained concentrate is dissolved in 10 μl of 50% methanol and placed on a TLC plate (silica gel 60; manufactured by Merck & Co., Inc.). After developing with chloroform/methanol/0.02% aqueous solution of CaCl2 (5/4/1 by volume), the sphingolipid is subjected to color development by the orcinol-sulfuric acid method. […] This spot is determined by using a TLC chromatoscanner (Shimadzu CS-9000, manufactured by Shimadzu Corporation) at a wavelength of 540 nm.
Sphingolipids (10 nmol each) were incubated at 37° C. for 16 h with 2 milliunits of the enzyme in 20 μl of 20 mM sodium acetate buffer, pH 5.0, containing 0.8% Triton X-100. The extent of hydrolysis was examined by TLC and calculated.

crude SCDase = assay: Substrate specificity of crude SCDase (culture supernatant) from Shewanella alga NS-589; assay type: biochemical; details: for Substrate specificity: acting on the substrate, forming the corresponding lysosphingolipid and fatty acid: SCDase produced by Shewanella alga NS-589; for Digestion ratio (%): crude SCDase supernatant, 1.2 mM sphingolipid, acetate buffer pH 6.0, Triton X-100, 37° C. 16 hours, TLC
Source text: Acting on acidic glycolipids (GM1, GM2, GD1a, GD1b, sialosyl paragloboside, etc.), neutral glycolipids (lactosyl ceramide, Gb4, Gb5, etc.), sulfated glycolipids (sulfatide, etc.) and sphingomyelin which is a sphingophospholipid, thus forming the corresponding lysosphingolipid and fatty acid in each case.
The substrate specificity was examined as follows. Shewanella alga NS-589 was inoculated into a synthetic medium (dipotassium hydrogenphosphate 0.05%, ammonium chloride 0.05%, sphingomyelin 0.1%, sodium taurodeoxycholate 0.1%, sodium chloride 2%, 2,6-O-dimethyl-β-cyclodextrin 0.1%; pH 7.4). Two days after shaking cultivation at 30° C., the strain was removed to obtain a supernatant by centrifuge. A 50 mM acetate buffer ([…]; pH 6.0) containing 3 μl of the supernatant and 1.6% Triton X-100 was allowed to react with 5 μl of 1.2 mM of each of sphingolipids shown in Table 2 at 37° C. for 16 hours, and then the resulting mixture was analyzed with a thin layer chromatography.
The digestion ratios of various substrates by a crude SCDase obtained from Shewanella alga NS-589.

Pseudomonas sp. TK-4 = assay: Conversion of glycosphingolipids into lyso-forms by culture of Pseudomonas sp. TK-4; assay type: cell-based; details: PY medium with 0.1% 2,6-O-dimethyl-β-cyclodextrin, glycosphingolipid 0.5 mg/ml (Gb4 0.1 mg/ml), 25° C. shaking 3 days, TLC of supernatant
Procedure: A 60 ml portion of PY medium (polypeptone 0.5%, yeast extract 0.1%, sodium chloride 0.2%; pH 7.2) containing 30 mg of ganglioside GM1 (manufactured by Iatron) and 0.1% of 2,6-O-dimethyl-β-cyclodextrin was sterilized and inoculated with the strain which had been incubated overnight in a slant medium containing 0.1% of crude bovine brain ganglioside prepared in accordance with the method described in Methods in Enzymology, 14:660-664 (1969). Then, the strain was incubated therein under shaking at 25° C. for 3 days.
Then the cells were eliminated by centrifuging the culture medium and thus the culture supernatant was obtained.
PY medium (polypeptone 0.5%, yeast extract 0.1%, sodium chloride 0.2%; pH 7.2) containing 0.1% of 2,6-O-dimethyl-β-cyclodextrin was sterilized in an autoclave and filter-sterilized aqueous solutions of various glycosphingolipids [i.e., GM1, GM2 (manufactured by Matreya), GM3 (manufactured by Iatron), GD1a (manufactured by Iatron), GD1b (manufactured by Iatron), GD3 (manufactured by Iatron), GT1b (manufactured by Biocarb), sulfatide (manufactured by Matreya): each 0.5 mg/ml, Gb4 (manufactured by Iatron): 0.1 mg/ml] were added thereto. Then each medium was inoculated with Pseudomonas sp. TK-4, which had been incubated overnight in a slant medium containing 0.1% of crude bovine brain ganglioside, followed by incubation at 25° C. under shaking for 3 days.
Then the cells were eliminated by centrifuging the culture medium to obtain the culture supernatant which was then analyzed by thin layer chromatography.

[2] = tested on: SCDase derived from the genus Pseudomonas; assay: Reverse reaction on various acceptors by SCDase-1 ([1-14C] stearic acid); assay type: biochemical; details: 1 nmol [1-14C] stearic acid, 1 nmol lysosphingolipid, 30 μU SCDase, acetate buffer pH 6.0, 0.8% Triton X-100, overnight 37° C., galactosylsphingosine = 100
Procedure: A 10 μl portion of 50 mM acetate buffer (pH 6.0) containing 1 nmol [1-^14C] stearic acid, 1 nmol lysosphingolipid, 0.8% Triton X-100 and 30 μU SCDase derived from the genus Pseudomonas was subjected to overnight reaction at 37° C. The thus obtained reaction solution was developed on thin layer chromatography and exposed to an imaging plate to carry out for determining the reaction product by BAS 1000 Imaging Analyzer (manufactured by Fuji Photo Film).

[3] = tested on: SCDase derived from the genus Pseudomonas; assay: Reverse reaction on various acceptors by SCDase-2 (N-trifluoroacetylated aminododecanoic acid); assay type: biochemical; details: 66.6 nmol N-trifluoroacetylated aminododecanoic acid, 33.3 nmol lysosphingolipid, 148 μU SCDase, glycine-NaOH pH 11, 0.3% Triton X-100, 48 hours 37° C.
Procedure: A 41.6 μl portion of 25 mM glycine-sodium hydroxide buffer (pH 11) containing 66.6 nmol N-trifluoroacetylated aminododecanoic acid, 33.3 nmol lysosphingolipid, 0.3% Triton X-100 and 148 μU SCDase derived from the genus Pseudomonas was subjected to 48 hours of reaction at 37° C.
The thus obtained reaction solution was developed on thin layer chromatography, a glycosphingolipid was colored with orcinol-sulfuric acid, and other sphingolipids with Coomassie Brilliant Blue, and then determination of the reaction product was carried out by Imaging Densitometer (manufactured by Bio-Rad).

[4] = Enzymological properties of SCDase of Pseudomonas sp. TK-4 (optimum pH, temperature, stability); assay type: biochemical
Procedure: as §1
One unit (1 U) of activity is defined as the amount of the enzyme liberating 1 μmol of lysoasialo GM1 per minute from asialo GM1 at 37° C. […]
The enzyme of the present invention is maintained at each definite pH value at 5C for 16 hours. After returning the pH value to 6.0, the enzyme activity is measured to thereby examine the pH stability of the enzyme. […]

**Q.** Which “Relative activity (%)” value [1] does the source give for Galactosyl ceramide [Gal-cer] here?
**A.** Its value is 100.0%.

**Q.** What about the “Digestion ratio (%)” value (SCDase) of the same molecule?
**A.** Its value is 42%.

**Q.** With GD1b as the molecule, how does the “Substrate specificity: acting on the substrate, forming the corresponding lysosphingolipid and fatty acid” value (“Substrate specificity: acting” for short) (crude SCDase) read?
**A.** The value was “Acting on”.

**Q.** What about the “Relative activity (%)” value [1] of the same molecule?
**A.** Its value is 1.2%.

**Q.** What about the “Digestion ratio (%)” value (Pseudomonas sp. TK-4) of the same molecule?
**A.** The value was 100%.

**Q.** Which “Relative activity (%)” value [2] does the source give for CCCCCCCCCCCCC/C=C/[C@@H](O)[C@@H](N)CO[C@@H]1O[C@H](CO)[C@@H](O[C@@H]2O[C@H](CO)[C@H](O)[C@H](O)[C@H]2O)[C@H](O)[C@H]1O [Lysolactosyl ceramide] here?
**A.** Its value is 37.2%.

**Q.** With Ceramide as the molecule, how does the “Relative activity (%)” value [1] read?
**A.** The value was 77.5%.

**Q.** For Gal-GalNAc-Gal-Glc-Cer [Asialo GM1], which “Relative activity (%)” value [1] is on record?
**A.** Its value is 164.0%.

**Q.** What about the “Digestion ratio (%)” value (SCDase) of the same molecule?
**A.** Its value is 67%.

**Q.** Which results are given for GT1b?
**A.** Digestion ratio (%) (crude SCDase): 26.2%; Digestion ratio (%) (Pseudomonas sp. TK-4): 100%

**Q.** With CCCCCCCCCCCCCC=CC(O)C(N)COC1OC(CO)C(OC2OC(CO)C(O)C(OC3(C(=O)O)CC(O)C(NC(C)=O)C(C(O)C(O)CO)O3)C2O)C(O)C1O (stereo not drawn) [Lysoganglioside GM3] as the molecule, how does the “Reaction Efficiency (%)” value [3] read?
**A.** The value was 24%.

**Q.** Which “Relative activity (%)” value [2] does the source give for CCCCCCCCCCCCC/C=C/[C@@H](O)[C@@H](N)CO[C@@H]1O[C@H](CO)[C@H](O)[C@H](OS(=O)(=O)O)[C@H]1O [Lysosulfatide] here?
**A.** Its value is 59.6%.

**Q.** Which results are given for GD1a?
**A.** Substrate specificity: acting on the substrate, forming the corresponding lysosphingolipid and fatty acid (crude SCDase): Acting on; Digestion ratio (%) (crude SCDase): 32.6%; Relative activity (%) [1]: 6.2%; Digestion ratio (%) (SCDase): 49%; Digestion ratio (%) (Pseudomonas sp. TK-4): 100%

**Q.** Which “Relative activity (%)” value [1] does the source give for Glucosyl ceramide [Glc-cer] here?
**A.** The value was 129.0%.

**Q.** And the “Digestion ratio (%)” value (SCDase)?
**A.** Its value is 48%.

**Q.** With CCCCCCCCCCCCC/C=C/[C@@H](O)[C@@H](N)CO[C@@H]1O[C@H](CO)[C@@H](O[C@@H]2O[C@H](CO)[C@H](O[C@@H]3O[C@H](CO)[C@H](O)[C@H](O[C@@H]4O[C@H](CO)[C@H](O)[C@H](O)[C@H]4O)[C@H]3NC(C)=O)[C@H](O[C@]3(C(=O)O)C[C@H](O)[C@@H](NC(C)=O)[C@H]([C@H](O)[C@H](O)CO)O3)[C@H]2O)[C@H](O)[C@H]1O [Lysoganglioside GM1a] as the molecule, how does the “Relative activity (%)” value [2] read?
**A.** Its value is 15.4%.

**Q.** And the “Reaction Efficiency (%)” value [3]?
**A.** Its value is 29%.

**Q.** For CCCCCCCCCCCCC/C=C/[C@@H](O)[C@@H](N)CO [Sphingosine, sphingosine], which “Relative activity (%)” value [2] is on record?
**A.** Its value is 11.5%.

**Q.** And the “Reaction Efficiency (%)” value [3]?
**A.** Its value is 69%.

**Q.** For lactosyl ceramide [Lac-cer], which “Substrate specificity: acting” value (crude SCDase) is on record?
**A.** The value was “Acting on”.

**Q.** And the “Digestion ratio (%)” value (crude SCDase)?
**A.** The value was 19.3%.

**Q.** And the “Relative activity (%)” value [1]?
**A.** The value was 112.0%.

**Q.** And the “Digestion ratio (%)” value (SCDase)?
**A.** The value was 64%.

**Q.** With Sulfatide as the molecule, how does the “Substrate specificity: acting” value (crude SCDase) read?
**A.** The value was “Acting on”.

**Q.** What about the “Relative activity (%)” value [1] of the same molecule?
**A.** Its value is 31.7%.

**Q.** What about the “Digestion ratio (%)” value (SCDase) of the same molecule?
**A.** Its value is 59%.

**Q.** And the “Digestion ratio (%)” value (Pseudomonas sp. TK-4)?
**A.** Its value is 100%.

**Q.** Which “Relative activity (%)” value [2] does the source give for CCCCCCCCCCCCC/C=C/[C@@H](O)[C@@H](N)COP(=O)([O-])OCC[N+](C)(C)C [Lysosphingomyelin, sphingosylphosphorylcholine] here?
**A.** The value was 5.7%.

**Q.** For CCCCCCCCCCCCC/C=C/[C@@H](O)[C@@H](N)CO[C@@H]1O[C@H](CO)[C@H](O)[C@H](O)[C@H]1O [Galactosylsphingosine, galactosylsphingosine], which “Relative activity (%)” value [2] is on record?
**A.** Its value is 100.0%.

B1: SCDase (Pseudomonas sp. TK-4): sphingolipid ceramide N-deacylase produced by Pseudomonas sp. TK-4, SEQ ID NO:1 (protein)
chain: ELGDYGAWKTLLNLTSPPKADNPVRAEQRVGPYPMLANPAGFRSGFTPTAYFAWQTVQLAPETGAVCGDGSPYKFFVNRMPNTSNTLIYMEGGGACWDYASCSGQAGIRGARNPNGIPDDYMKLANPQASLVSPFVVRLHPYSRVKTQGWNIVYIPYCTGDLYAGDKVAVYDDPSGKKPPLVWHHNGLRNGRAVLGWLKDNLERPGQMLSTGCSAGGAGSLISHSVLRQDLAPDRGFLIDDSGPVFSAAVGGDSQTYPSLPLQNLIRSAWGLDQGPLQFLQSRLPGVSLSNLGSLYPALAANFPGDRLGHTHFWQDLNYSSYSYERFYPEIANAPDKATKEALIKAKWQVDTARLRDTLANLPNFGGYFPQYRALNESHCTTIVDFANGDIQEQGLELSHFIDNVLNGQGPVLDASELSDSADRAKPNNLIYDAINKLL
modifications: OTHER INFORMATION: Description of Unknown Or ganism: sphingolipid ceramide N-deacylase
**Q.** What does the source list for B1?
**A.** Optimum temperature (maximum activity) ([4]; FIG. 2): about 40 °C; Heat stability: activity sustained ([4]; after treating at 60° C. for 30 minutes, FIG. 4): 90%
